Experiment [1] relates to T1, rTRE_P2 (TRE_P2), trehalose-6-phosphate hydrolase.
T1 construct: full length without signal peptide, gene 1638 bp
Kind of experiment: p-nitrophenol release, A410, initial rates. Type of experiment: biochemical, Staphylococcus warneri. The settings on record: 50 mM HEPES-NaOH pH 7.5 and 100 mM NaCl (standard assay), 30°C; pNPG 0.5-10 mM.

The subject of experiment [2] is T2, rTRE_P3 (TRE_P3), trehalose-6-phosphate hydrolase.
T2 construct: full length without signal peptide, gene 1644 bp
Kind of experiment: p-nitrophenol release, A410, initial rates. It counts as biochemical, Staphylococcus warneri. Particulars: 50 mM HEPES-NaOH pH 7.5 and 100 mM NaCl (standard assay), 30°C; pNPG 0.5-10 mM.

As a reminder, the Km is the substrate concentration at which the rate is half of its maximum. For the compound `O=[N+]([O-])c1ccc(O[C@H]2O[C@H](CO)[C@@H](O)[C@H](O)[C@H]2O)cc1` [p-nitrophenyl-α-D-glucopyranoside], the Km in experiment [1] is 15.6 mM; in experiment [2], 12.5 mM.

The record behind these values is publication PMC7358406, “Molecular and Biochemical Characterization of Salt-Tolerant Trehalose-6-Phosphate Hydrolases Identified by Screening and Sequencing Salt-Tolerant Clones From the Metagenomic Library of the Gastrointestinal Tract” (Frontiers in Microbiology, 2020).
